We go through 3 compounds from US20200009176A1, “TREATMENT OF LEUKEMIA VIA THE ADMINISTRATION OF DOT1L INHIBITOR PINOMETOSTAT” (Epizyme, Inc., priority 2014, published 2020).

“And” between values parts separate entries of the source, which are not always exact repeats. Equal values may be shown once. “Also recorded” adds a separate entry of the source. Read-outs that look alike come from different tables or passages of the source.

In series [1] the test system is leukemia cell lines MOLM-13, OCI-AML4, and SKM-1. Nature of the series: Growth inhibition assays, pinometostat with RAS pathway inhibitors. Format: cell-based. To be noted: pinometostat 3 μM, 300 nM, 150 nM or 75 nM plus SCH772984, Trametinib or Sorafenib; FIG. 13. Here is the method: Growth inhibition assays were performed using leukemia cell lines to determine whether there is any synergy between pinometostat and RAS pathway inhibitors. The leukemia cell lines used were MOLM-13, OCI-AML4, and SKM-1. For these studies, different RAS pathway inhibitors were used, including SCH772984 (e.g., an ERK inhibitor), Trametinib (e.g., a MEK inhibitor), and Sorafenib (e.g., a Raf kinase inhibitor).

Series [2] in a line: Adult Phase 1 dose escalation/expansion study: safety and clinical response. Format: in vivo, human. Further details: key to clinical response, per patient: ▪: Complete Responder (Patient Nos. 16 and 18); ▴: Biological Effect (Leukocytosis) (Patient Nos. 1, 7, 13, 15, and 17); ●: Non-responder (Patient Nos. 2-6, 8-12, and 14). The text has this:
This open label dose escalation/expansion study of pinometostat enrolled patients ≥18 years (yrs) with R/R leukemia (NCT01684150). In the dose-escalation phase, patients with AML, ALL, mixed lineage leukemia (MLL), myelodysplastic syndrome, myeloproliferative neoplasm or chronic myeloid leukemia were eligible. […] Pinometostat was given via continuous intravenous infusion (CIV) for 21 of 28 day cycles in the dose escalation phase and CIV for 28 of 28 day cycles in the expansion phase, until disease progression or unacceptable toxicity. All patients underwent serial collection of PK and peripheral blood mononuclear cells (PBMC) for PD. […] As of Jun. 28, 2015, 49 patients have enrolled in the dose escalation and expansion phases. […] Correlations of transcript abundance and DNA variants detected with categorical (responder=CR or PR [n=3], or no response [n=15]) and continuous response parameters (time on study (“TOS”), mean=59 days: range=8-196 days) were performed.

Series [3] is described as follows: Pediatric Phase 1 study: safety. The series is classed as in vivo, human. The settings on record: children with R/R leukemia. As to the method: (§1) An open label dose escalation study of pinometostat was performed in patients (pts) aged 3 months to 18 […] leukemia (NCT02141828). Pinometostat was administered via continuous intravenous infusion until disease progression or unacceptable toxicity. Patients were assigned to one of two age-based dose escalation […] developed from simulations of pediatric exposures using a previously reported physiologically-based PK (PBPK) model (Waters, 2014). All patients underwent serial collection of PK and peripheral blood mononuclear cells (PBMC) for PD. Leukemic blasts were isolated from PBMCs using flow cytometry and quantified for di-methylation of H3K79 (H3K79-me2) by ChIP-Seq. As of Jun. 28, 2015, 11 patients have enrolled in the dose escalation of the study consisting of 10 patients (6 patients at 70 mg/m^2/day, 4 patients at 90 mg/m^2/day) in the older age cohort (1 to 18 yr) and 1 patient (45 mg/m^2/day) in the younger age cohort (<1 yr).

Series [4] in a line: Pediatric Phase 1 study: pharmacokinetics. The series is classed as in vivo, human. Here is the method: as §1, with “ChIP-Seq.” for “ChIP-Seq. As of Jun. 28, 2015, 11 patients have enrolled in the dose escalation of the study consisting of 10 patients (6 patients at 70 mg/m^2/day, 4 patients at 90 mg/m^2/day) in the older age cohort (1 to 18 yr) and 1 patient (45 mg/m^2/day) in the younger age cohort (<1 yr).”

In a further series the target is DOT1L (Homo sapiens, UniProt Q8TEK3). Nature of the series: DOT1L affinity. The series is classed as binding.
Series [5] concerns H3K79-me2 at MLL-r target genes HOXA9 and MEIS1. Nature of the series: Adult Phase 1 study: H3K79-me2 ChIP-Seq in leukemic blasts. The series is classed as in vivo, human. To be noted: 9 patients, 90 mg/m^2 expansion cohort. As to the method:
(§2) This open label dose escalation/expansion study of pinometostat enrolled patients ≥18 years (yrs) with R/R leukemia (NCT01684150). In the dose-escalation phase, patients with AML, ALL, mixed lineage leukemia (MLL), myelodysplastic syndrome, myeloproliferative neoplasm or chronic myeloid leukemia were eligible. Eligibility in the two expansion cohorts: 90 mg/m^2 (n=17) and 54 mg/m^2 (n=6), was restricted to patients with MLL-r or MLL-partial tandem duplication (MLL-PTD). Pinometostat was given via continuous intravenous infusion (CIV) for 21 of 28 day cycles in the dose escalation phase and CIV for 28 of 28 day cycles in the expansion phase, until disease progression or unacceptable toxicity. All patients underwent serial collection of PK and peripheral blood mononuclear cells (PBMC) for PD. Leukemic blasts were isolated from PBMCs using flow cytometry and quantified for dimethylation of H3K79 (H3K79-me2) by ChIP-Seq.

The conditions of series [6]: Stein 2014 ASH abstract 387; cited from earlier work.
The nature of series [7]: Adult Phase 1 study: pharmacokinetics. The series is classed as in vivo, human. To be noted: adults, CIV. As to the method: as §2
Series [8] has as its system H3K79-me2 at MLL-r target genes HOXA9 and MEIS1. Nature of the series: Pediatric Phase 1 study: H3K79-me2 ChIP-Seq in leukemic blasts. Format: in vivo, human. To be noted: 2 of 2 pediatric patients analyzed. As to the method: as §1, with “ChIP-Seq.” for “ChIP-Seq. As of Jun. 28, 2015, 11 patients have enrolled in the dose escalation of the study consisting of 10 patients (6 patients at 70 mg/m^2/day, 4 patients at 90 mg/m^2/day) in the older age cohort (1 to 18 yr) and 1 patient (45 mg/m^2/day) in the younger age cohort (<1 yr).”

The subject of series [9] is 14 cell lines (MLL-r or MLL-PTD). Nature of the series: Cell proliferation in 14 cell lines. Format: cell-based. Here is the method: RNA and DNA were isolated from PBMCs and/or bone marrow collected prior to treatment from 18 patients enrolled in the adult pinometostat Phase 1 study (CT.gov: NCT01684150), at the following doses 24 (n=2), 36 (n=3), 54 (n=6), 80 (n=3) and 90 mg/m^2/day doses (n=4). mRNA transcript abundance was assessed using whole genome RNASeq and DNA variants were determined using a 194 gene panel, MyAML (Genection Inc.). Correlations of transcript abundance and DNA variants detected with categorical (responder=CR or PR [n=3], or no response [n=15]) and continuous response parameters (time on study (“TOS”), mean=59 days: range=8-196 days) were performed. For cell lines, whole genome RNASeq data was generated from 14 cell lines (MLL-r or MLL-PTD) with a range of in vitro sensitivity to pinometostat (cell proliferation IC50 2 nM to >10 μM) and RNA transcripts identified as correlated with IC5o were submitted for pathway analysis.

A further series has as its system MLL-rearranged cells. Nature of the series: Pre-clinical study with MLL-rearranged and non-MLL rearranged cells (FIG. 3). The series is classed as cell-based. To be noted: MLL-rearranged vs non-MLL rearranged cells.
Series [10] has as its system MLL-rearranged cells and xenografts. To be noted: cited from earlier work.
Setting [11] is: 18 adult patients of biomarker analysis.
Where [12] appears, read: dose level 24 mg/m^2, listed as pinometostat.
[13] abbreviates: dose level 36 mg/m^2, listed as pinometostat.
The mark [14] stands for this setting: dose level 54 mg/m^2, listed as pinometostat.
[15] abbreviates: dose level 90 mg/m^2, listed as pinometostat.

DOT1L, sequence (Q8TEK3 whole entry): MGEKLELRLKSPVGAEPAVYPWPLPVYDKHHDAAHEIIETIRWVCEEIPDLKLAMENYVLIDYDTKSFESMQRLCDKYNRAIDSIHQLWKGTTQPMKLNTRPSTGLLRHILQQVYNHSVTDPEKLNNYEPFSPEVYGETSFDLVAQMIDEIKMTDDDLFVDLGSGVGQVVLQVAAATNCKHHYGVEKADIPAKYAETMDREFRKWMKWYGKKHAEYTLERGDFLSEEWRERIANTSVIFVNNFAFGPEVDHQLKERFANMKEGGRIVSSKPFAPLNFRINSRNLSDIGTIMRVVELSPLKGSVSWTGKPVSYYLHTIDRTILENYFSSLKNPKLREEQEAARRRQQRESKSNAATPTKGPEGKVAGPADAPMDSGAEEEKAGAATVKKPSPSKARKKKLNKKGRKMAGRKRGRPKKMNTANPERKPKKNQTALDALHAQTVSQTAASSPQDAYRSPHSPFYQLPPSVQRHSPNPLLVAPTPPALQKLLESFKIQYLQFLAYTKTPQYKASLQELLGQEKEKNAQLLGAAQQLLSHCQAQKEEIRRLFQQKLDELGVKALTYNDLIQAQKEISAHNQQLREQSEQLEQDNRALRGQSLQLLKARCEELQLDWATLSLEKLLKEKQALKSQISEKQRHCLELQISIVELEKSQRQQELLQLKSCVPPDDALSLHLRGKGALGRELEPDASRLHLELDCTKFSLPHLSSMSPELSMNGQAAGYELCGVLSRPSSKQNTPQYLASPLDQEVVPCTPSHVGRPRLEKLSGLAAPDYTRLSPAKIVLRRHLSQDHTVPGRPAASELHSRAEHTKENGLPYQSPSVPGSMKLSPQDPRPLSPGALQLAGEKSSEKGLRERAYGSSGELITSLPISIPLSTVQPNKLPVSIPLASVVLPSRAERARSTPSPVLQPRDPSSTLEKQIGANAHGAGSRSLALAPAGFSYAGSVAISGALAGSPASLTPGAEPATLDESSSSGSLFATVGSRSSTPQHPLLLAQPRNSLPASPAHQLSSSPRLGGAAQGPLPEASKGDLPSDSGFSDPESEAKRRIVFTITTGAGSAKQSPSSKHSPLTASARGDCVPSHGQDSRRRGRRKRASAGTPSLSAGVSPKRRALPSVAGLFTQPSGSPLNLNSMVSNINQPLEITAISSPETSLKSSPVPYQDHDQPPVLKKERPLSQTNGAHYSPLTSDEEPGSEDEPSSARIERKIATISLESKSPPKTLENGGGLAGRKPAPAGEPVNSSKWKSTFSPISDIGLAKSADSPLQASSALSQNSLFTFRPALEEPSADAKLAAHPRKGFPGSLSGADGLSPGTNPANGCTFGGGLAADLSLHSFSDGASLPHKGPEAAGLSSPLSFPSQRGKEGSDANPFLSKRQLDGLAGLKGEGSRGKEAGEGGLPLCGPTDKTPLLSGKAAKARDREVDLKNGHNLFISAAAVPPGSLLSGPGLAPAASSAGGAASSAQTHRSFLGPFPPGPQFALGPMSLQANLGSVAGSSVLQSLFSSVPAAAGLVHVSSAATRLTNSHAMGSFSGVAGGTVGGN

Take `CC(C)N(C[C@H]1O[C@@H](n2cnc3c(N)ncnc32)[C@H](O)[C@@H]1O)[C@H]1C[C@@H](CCc2nc3cc(C(C)(C)C)ccc3[nH]2)C1` [Compound A2, (2R,3R,4S,5R)-2-(6-amino-9H-purin-9-yl)-5-((((1r,3S)-3-(2-(5-(tert-butyl)-1H-benzo[d]imidazol-2yl)ethyl)cyclobutyl)(isopropyl)amino)methyl)tetrahydrofuran-3,4-diol]: the “effect on inhibition of cell growth, combination of RAS pathway inhibitor and pinometostat” value (“effect on inhibition of cell growth” for short) in [1] was “synergistic effect; also recorded: synergistic cell killing”. In [2] (setting [11]), the “time on study (TOS), mean” value came out at 59 days. In [2] (setting [11]), the “time on study (TOS), range” value fell in the range of 8 to 196 days. Besides, the safety profile result was “acceptable safety profile” in series [2] (CIV, adults with R/R leukemia) and “acceptable safety profile” in series [3]. The “differentiation effect in patients with MLL-r” value in series [2] (FIG. 8, micrographs of blood and bone marrow) was “leads to a differentiation effect”. For the same compound, in [2] (adult MLL-r and MLL-PTD, 90 mg/m^2/day uninterrupted, expansion stage), the drug-related treatment discontinuations entry was “no drug-related treatment discontinuations”. The “objective response: PR” value in [2] (adults, 49 patients) is 1 pt. Further, in series [2] (adults, 49 patients), the “objective response: cytogenetic CR (MLL negative by FISH)” value stood at 1 pt. In addition, the “objective response: morphologic CR” value in series [2] (adults, 49 patients) came out at 1 pt. The “resolution of leukemia cutis” value in [2] (adults, 49 patients) worked out at 3 pts. In [2] (adults, absolute monocyte and neutrophil 50% above baseline and above upper limit of normal), the “patients with leukocytosis or differentiation” value is recorded as “Nine”. The “Time on Study, per patient” value is 49 days and 8 days in series [2] (setting [12]); 33 days and 65 days and 21 days in series [2] (setting [13]); 49 days and 110 days and 196 days and 21 days in [2] (setting [14]); 41 days and 82 days in series [2] (dose level 80 mg/m^2, listed as pinometostat); 31 days and 38 days and 50 days and 86 days and 136 days and 15 days and 28 days in series [2] (setting [15]). Further, the “clinical response, per patient” value in [2] (setting [12]) was “● and ▴”; in series [2] (setting [13]), “▴ (2×) and ●”; in series [2] (setting [14]) it was “● (2×) and ▪ (2×)”; in series [2] (dose level 80 mg/m^2), “●”; in series [2] (setting [15]), “● (5×) and ▴ (2×)”. For the same compound, in series [4] (children), the “Steady-state CSF concentrations” value is reported as < 2 ng/mL. Further, the “Steady-state plasma concentrations (Css)” value in [4] (children ≥1 yr, 70 and 90 mg/m^2 doses) is 800 to 1600 ng/mL. Moreover, the “affinity for DOT1L” value on DOT1L is “sub-nanomolar”. The “median inhibition of H3K79-me2 methylation at HOXA9 and MEIS1” value in [5] turned out to be 61%. Moreover, the “range of inhibition of H3K79-me2 methylation at HOXA9 and MEIS1” value in series [5] is reported as 13- 91%; in series [8] it was 44-72%. Besides, the “clinical activity, preliminary results of the adult trial” value in [6] was “complete remissions in a subset of patients”. Besides, the “attainment of steady-state plasma concentrations (Css)” value in series [7] is “Day 1”. In addition, in [7], the “dose proportionality of PK” value is “Dose proportional PK”. Moreover, the IC50 is > 10000 nM in [9] (least sensitive of 14 cell lines, read-out: cell proliferation IC50, upper end of range) and 2 nM in [9] (most sensitive of 14 cell lines, read-out: cell proliferation IC50, lower end of range). In addition, in the series on MLL-rearranged cells, the “killing of genetically defined cancer cells” value is given as “selective killing”. Also, in [10], the “MLL target gene expression” value is listed as “decreased”. The “histone H3K79 methylation” value in series [10] was “reduced”. Moreover, the leukemia cell kill result in series [10] (listed as Pinometostat) is listed as “induced selective leukemia cell kill”; in [10] (listed as pinometostat) it was “selective leukemia cell kill”.

As to `CNC(=O)c1cc(Oc2ccc(NC(=O)Nc3ccc(Cl)c(C(F)(F)F)c3)cc2)ccn1` [Sorafenib, reference compound], in series [1], the “effect on inhibition of cell growth” value is “synergistic effect”.

Consider `O=C(Nc1ccc2[nH]nc(-c3ccncc3)c2c1)[C@@H]1CCN(CC(=O)N2CCN(c3ccc(-c4ncccn4)cc3)CC2)C1` [SCH772984, reference compound], for which, in [1], the “effect on inhibition of cell growth” value is “synergistic effect”.
